From ChEMBL document CHEMBL1151565, “Biological evaluation of two potent inhibitors of Trypanosoma cruzi epimastigotes against the intracellular form of the parasite” (1996) come the findings set out here.

Holding throughout (type): functional
Assay [1] in a line: Compound was tested for its activity against T. cruzi-infected L6E9 myoblasts expressed as parasites number per 100 myoblasts at no concentration at 48 hr.
Assay [2] in a line: Compound was tested for its activity against T. cruzi-infected L6E9 myoblasts expressed as parasites number per 100 myoblasts at no concentration at 72h.
Assay [3] is described as follows: Compound was tested for its activity against T. cruzi-infected L6E9 myoblasts at a concentration of 40 ug/mL.
Assay [4] can be described thus: Compound was tested for its activity against T. cruzi-infected L6E9 myoblasts at no concentration at 48 hr.
Assay [5] in a line: Compound was tested for its activity against T. cruzi-infected L6E9 myoblasts expressed as parasites number per 100 myoblasts at a concentration of 30 ug/mL.
Assay [6] in a line: Compound was tested for its activity against T. cruzi-infected L6E9 myoblasts expressed as parasites number per 100 myoblasts at no concentration at 24 h.
Assay [7] can be described thus: Compound was tested for its activity against T. cruzi-infected L6E9 myoblasts at no concentration at 24 h.
The nature of assay [8]: Compound was tested for its activity against T. cruzi-infected L6E9 myoblasts at a concentration of 30 ug/mL.
A short description of assay [9]: Compound was tested for its activity against T. cruzi-infected L6E9 myoblasts at no concentration at 72h.
A short description of assay [10]: Compound was tested for its activity against T. cruzi-infected L6E9 myoblasts expressed as parasites number per 100 myoblasts at a concentration of 5 ug/mL.
The nature of assay [11]: Compound was tested for its activity against T. cruzi-infected L6E9 myoblasts at a concentration of 5 ug/mL.
The nature of assay [12]: Compound was tested for its activity against T. cruzi-infected L6E9 myoblasts at a concentration of 10 ug/mL.

Values joined by “and” are separate entries in the source; they are usually repeats but may differ in a detail not shown here. Equal entries are not always repeated.

As to `CCSC(=O)OC/C=C(\C)CC/C=C(\C)CCC1OC1(C)C` (stereo unspecified), the “Parasites no. per 100 Myoblasts” value in [1] was 118; in assay [2], 694.5; in assay [5] it was 77.75 and 27; in assay [6], 46.5. Moreover, the Myoblast with parasites in [3] was 10.25% and 2.75%; in assay [4] it was 16.25%; in assay [7], 21.25%; in assay [8] it was 23.25% and 9.75%; in assay [9], 20.5%.
`c1ccc(Oc2ccc(OCCOC3CCCCO3)cc2)cc1` (stereo unspecified): the “Parasites no. per 100 Myoblasts” value in assay [1] was 107; in assay [10], 90.25 and 113.75. Besides, the Myoblast with parasites was 24.5% in assay [4]; 22.5% and 22% in assay [11]; 21.25% in assay [7]; 21.25% and 12.5% in assay [12]; 18.25% in assay [9].
